Results as given in paper PMC3415572 (Journal of medicinal chemistry, 2012).
Entries after “also recorded” stand apart in the source; their conditions may differ. Like-named read-outs stand apart in the source and are kept apart here.

Key:
D3R = D3R (Homo sapiens, UniProt P35462); assay: BRET1-based GoA activation assay, D3R; format: cell-based; conditions: for Emax in the Go BRET assay, D3R / efficacy type at D3R (in words): HEK293T; for Emax in the Go BRET assay, D3R: dose-response 100 pM to 100 µM; for efficacy type at D3R (in words): GoA BRET
D3R, sequence (P35462 whole entry): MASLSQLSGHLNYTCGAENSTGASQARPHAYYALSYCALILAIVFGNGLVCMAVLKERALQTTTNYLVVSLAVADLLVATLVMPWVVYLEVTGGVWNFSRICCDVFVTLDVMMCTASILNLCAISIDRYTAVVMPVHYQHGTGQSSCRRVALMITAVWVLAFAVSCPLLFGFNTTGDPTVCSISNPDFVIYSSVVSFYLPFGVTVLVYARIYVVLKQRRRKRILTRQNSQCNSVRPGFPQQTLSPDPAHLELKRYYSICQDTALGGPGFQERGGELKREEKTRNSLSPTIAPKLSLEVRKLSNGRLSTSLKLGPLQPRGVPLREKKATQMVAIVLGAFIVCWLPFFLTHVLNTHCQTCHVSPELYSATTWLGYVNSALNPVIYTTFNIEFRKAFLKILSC

D2R = D2R (Homo sapiens, UniProt P14416); assay: BRET1-based GoA activation assay, D2R; format: cell-based
D2R, sequence (P14416 1-414 isoform P14416-2): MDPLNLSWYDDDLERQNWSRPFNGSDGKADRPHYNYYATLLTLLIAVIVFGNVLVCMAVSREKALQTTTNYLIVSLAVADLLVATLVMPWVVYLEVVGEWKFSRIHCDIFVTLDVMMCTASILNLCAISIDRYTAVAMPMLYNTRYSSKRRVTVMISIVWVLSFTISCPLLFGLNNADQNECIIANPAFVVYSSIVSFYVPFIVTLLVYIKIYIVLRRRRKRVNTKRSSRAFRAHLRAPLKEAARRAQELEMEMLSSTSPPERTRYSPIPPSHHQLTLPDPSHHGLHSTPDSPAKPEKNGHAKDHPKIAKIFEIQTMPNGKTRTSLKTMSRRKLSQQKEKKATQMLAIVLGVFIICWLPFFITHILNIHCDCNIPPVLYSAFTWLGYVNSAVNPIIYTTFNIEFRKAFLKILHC

[1] = HEK293T, dose-response 100 pM to 100 µM

Structure (SMILES)	Emax in the Go BRET assay, D3R (D3R)	efficacy type at D3R (in words) (D3R)	also measured
CCC(=O)NCCCCN1CCN(c2cccc(Cl)c2Cl)CC1 [Compound 16]	22.32 % of the Emax of dopamine		
Clc1cccc(N2CCNCC2)c1Cl [Compound 8, 2,3-diCl-4-phenylpiperazine]	57.27 % of the Emax of dopamine	substantial partial agonism	efficacy type at D2R (in words) (D2R; GoA BRET, HEK293T): substantial partial agonism; Emax in the Go BRET assay, D2R (D2R; [1]): 40.03 % of the Emax of dopamine
OCCN1CCN(c2cccc(Cl)c2Cl)CC1 [Compound 12, 2-(4-(2,3-Dichlorophenyl)piperazin-1-yl)ethanol]	21.08 % of the Emax of dopamine		
CCN1CCCC1CNC(=O)c1cc(S(N)(=O)=O)ccc1OC (stereo not shown) [Compound 7, sulpiride, reference compound]	−6.83 % of the Emax of dopamine	inverse agonist	efficacy type at D2R (in words) (D2R; GoA BRET, HEK293T): inverse agonist; Emax in the Go BRET assay, D2R (D2R; [1]): −6.26 % of the Emax of dopamine; shift of dopamine dose-response curve at D2R (D2R; sulpiride 100 nM): dramatically right-shifted the potency of dopamine; shift of dopamine dose-response curve at D3R (D3R; sulpiride 100 nM): dramatically right-shifted the potency of dopamine
O=C(NCCCCN1CCN(c2cccc(Cl)c2Cl)CC1)c1cc2ccccc2[nH]1 [Compound 4, N-(4-(4-(2,3-dichlorophenyl)piperazin-1-yl)butyl)-1H-indole-2-carboxamide]	16.00 % of the Emax of dopamine	weak partial agonism	efficacy type at D2R (in words) (D2R; GoA BRET, HEK293T): weak partial agonism
CCCCN1CCN(c2cccc(Cl)c2Cl)CC1 [Compound 14, 1-Butyl-4-(2,3-dichlorophenyl)piperazine]	14.13 % of the Emax of dopamine		
CCc1cc(Cl)c(OC)c(C(=O)NC[C@@H]2CCCN2CC)c1O [Compound 3, eticlopride, reference compound]		inverse agonist	
CCCCN1CCN(c2ccccc2OC)CC1 [Compound 15, 1-Butyl-4-(2-methoxyphenyl)piperazine]	9.40 % of the Emax of dopamine		
CN1CCN(c2cccc(Cl)c2Cl)CC1 [Compound 10, 1-(2,3-Dichlorophenyl)-4-methylpiperazine]	37.53 % of the Emax of dopamine		
COc1ccccc1N1CCN(CCCCNC(=O)c2cc3ccccc3[nH]2)CC1 [Compound 5]	8.38 % of the Emax of dopamine	weak partial agonism	efficacy type at D2R (in words) (D2R; GoA BRET, HEK293T): weak partial agonism; Emax in the Go BRET assay, D2R (D2R; [1]): 13.65 % of the Emax of dopamine
COc1ccccc1N1CCN(C)CC1 [Compound 11, 1-(2-Methoxyphenyl)-4-methylpiperazine]	7.11 % of the Emax of dopamine		
COc1ccccc1N1CCNCC1 [Compound 9, 2-OCH3-4-phenylpiperazine]	6.27 % of the Emax of dopamine	only minimal efficacy	Emax in the Go BRET assay, D2R (D2R): 14.02 % of the Emax of dopamine; efficacy type at D2R (in words) (D2R): only minimal efficacy
NCCc1ccc(O)c(O)c1 [dopamine, reference compound]			efficacy type at D2R (in words) (D2R): full agonists
O=C(NCC[C@@H](O)CN1CCN(c2cccc(Cl)c2Cl)CC1)c1cc2ccccc2[nH]1 [Compound 2]		weak partial agonism	
CCCN1CCN(c2cccc(Cl)c2Cl)CC1 [Compound 13, 1-(2,3-Dichlorophenyl)-4-propylpiperazine]	17.53 % of the Emax of dopamine		
CCCCNC(=O)c1cc2ccccc2[nH]1 [Compound 18, N-Butyl-1H-indole-2-carboxamide]	−0.65 % of the Emax of dopamine	no activity; also recorded: failed to activate	
CCC(=O)NCCCCN1CCN(c2ccccc2OC)CC1 [Compound 17]	7.37 % of the Emax of dopamine		
